Experimental data from patent publication US20220289732A1, “HETEROCYCLIC WDR5 INHIBITORS AS ANTI-CANCER COMPOUNDS” (NOVARTIS AG, priority 2019, published 2022).

Legend:
[1] = target: wild type MLL1 four-member complex (MLL1-4C) (Homo sapiens, UniProt P61964); assay: MLL1 LC-MS assay (SAH production); type: biochemical; conditions: read-out: (b) MLL LCMS Peptide Val.v.1 Qualified AC50
How it was run: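 MLL1-4C (30 nM final) was preincubated 20 min with compound (3-fold dilutions, 8 or 12 points) and SAM in Tris-HCl pH 8.0 buffer. H3K4me0 peptide (histone H3[1-21]-biotin) was then added, giving final 2.5 μM SAM and 10 μM substrate, and reactions ran 120 min at rt. After TFA/d4-SAH quench, SAH was quantified by LC-MS/MS and IC50 fitted from control-normalised activity.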

[2] = tested on: MV4-11 cells; assay: MV4-11 6-day cell growth CTG (CellTiter-Glo) assay; type: cell-based; conditions: Homo sapiens, MV4-11, 144 h, 6 days, read-out: (c) MLL/WDR5 cell proliferation assay//MLL/WDR5 proliferation MV4:11 Qualified AC50
How it was run: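 Exponentially growing MV4-11 AML cells (RPMI 1640, 10% FBS) seeded at 300 cells/well with 12-point 1:3 compound dilutions, top final concentration 50 μM. Viability read by CellTiter-Glo luminescence after 6 days at 37° C; % inhibition vs DMSO-only wells fitted to dose-response for IC50.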

[3] = target: WDR5 (Homo sapiens, UniProt P61964); assay: WDR5 HTRF binding assay; conditions: read-out: (a) WDR5 HTRF Pep Val v.1[Inhibitor/IC50]Qualified AC50
How it was run: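 6 nM WDR5 and 20 nM biotin-MLL1 WIN peptide (3762-3773) were incubated with compound (12-point, 3-fold dilutions) in pH 7.5 Hepes/NaCl/DTT buffer for 20 min at rt. Streptavidin-APC plus anti-His-Eu were then added for 1 hr, with HTRF read at 665/615. IC50 was fit from control-normalized activity; the counter assay used 15 nM biotin-PEG-His peptide.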

Row | SMILES | AC50 [1] | IC50 [3] | AC50 [2]
1 | CNc1nccn1Cc1cc2c(c(-c3ccnn3C)c1)CCN(Cc1cc(OC)c(F)cn1)C2=O [Example 60, 2-((5-fluoro-4-methoxypyridin-2-yl)methyl)-5-(1-methyl-1H-pyrazol-5-yl)-7-((2-(methylamino)-1H-imidazol-1-yl)methyl)-3,4-dihydroisoquinolin-1(2H)-one] | 10 to 1000 nM | 10 to 1000 nM | 10 to 1000 nM
2 | CCN(C)CCc1cc2c(c(-c3cn(C)nc3C(F)F)c1)CCN(C(C)c1cnc(F)c(OC)c1)C2=O (stereo not drawn) [Example 146, 5-(3-(difluoromethyl)-1-methyl-1H-pyrazol-4-yl)-7-(2-(ethyl(methyl)amino)ethyl)-2-(1-(6-fluoro-5-methoxypyridin-3-yl)ethyl)-3,4-dihydroisoquinolin-1(2H)-one] | 10 to 1000 nM | 10 to 1000 nM | 10 to 1000 nM
3 | CNc1nccn1Cc1cc2c(c(-c3cc(CO)cnc3Cl)c1)CCN(Cc1ccc(F)c(OC(F)F)c1)C2=O [Example 74, 5-(2-chloro-5-(hydroxymethyl)pyridin-3-yl)-2-(3-(difluoromethoxy)-4-fluorobenzyl)-7-((2-(methylamino)-1H-imidazol-1-yl)methyl)-3,4-dihydroisoquinolin-1(2H)-one] | 10 to 1000 nM | 10 to 1000 nM | 10 to 1000 nM
4 | CCOc1cc(C(C)N2CCc3c(cc(CCN(C)CC)cc3C3CC3)C2=O)ncc1C#N (stereo not drawn) [Example 158, 6-(1-(5-cyclopropyl-7-(2-(ethyl(methyl)amino)ethyl)-1-oxo-3,4-dihydroisoquinolin-2(1H)-yl)ethyl)-4-ethoxynicotinonitrile] | 10 to 1000 nM | 10 to 1000 nM | 1000 to 25000 nM
5 | CCOc1cc([C@H](C)N2CCc3c(cc(CCN(C)CC)cc3-c3cc(N)ncc3Cl)C2=O)ncc1C#N [Example 183, (S)-6-(1-(5-(2-amino-5-chloropyridin-4-yl)-7-(2-(ethyl(methyl)amino)ethyl)-1-oxo-3,4-dihydroisoquinolin-2(1H)-yl)ethyl)-4-ethoxynicotinonitrile] | 10 to 1000 nM | < 10 nM | 10 to 1000 nM
6 | CCOc1cc([C@H](C)N2CCc3c(cc(CCN(C)CC)cc3-c3ccc(F)nc3C)C2=O)ncc1C#N [Example 111, (S)-4-ethoxy-6-(1-(7-(2-(ethyl(methyl)amino)ethyl)-5-(6-fluoro-2-methylpyridin-3-yl)-1-oxo-3,4-dihydroisoquinolin-2(1H)-yl)ethyl)nicotinonitrile] | 10 to 1000 nM | < 10 nM | 10 to 1000 nM
7 | CNc1nccn1Cc1cc(CN(C)C2CC2)c2c(c1)C(=O)N([C@@H](C)c1cnc(F)c(OC)c1)CC2 [Example 15, (S)-5-((cyclopropyl(methyl)amino)methyl)-2-(1-(6-fluoro-5-methoxypyridin-3-yl)ethyl)-7-((2-(methylamino)-1H-imidazol-1-yl)methyl)-3,4-dihydroisoquinolin-1(2H)-one] | 10 to 1000 nM | 10 to 1000 nM | 10 to 1000 nM

Continued, in another order:

Row | AC50 [1] | IC50 [3] | SMILES | AC50 [2]
8 | 10 to 1000 nM | < 10 nM | CNc1nccn1Cc1cc2c(c(N3CCCC3)c1)CCN([C@@H](C)c1cc(OC)c(F)cn1)C2=O [Example 89, (S)-2-(1-(5-fluoro-4-methoxypyridin-2-yl)ethyl)-7-((2-(methylamino)-1H-imidazol-1-yl)methyl)-5-(pyrrolidin-1-yl)-3,4-dihydroisoquinolin-1(2H)-one] | 10 to 1000 nM
9 | 10 to 1000 nM | < 10 nM | CCOc1cc(CN2CCc3c(cc(CCN(C)CC)cc3-c3cc(C)ncc3Cl)C2=O)ncc1C#N [Example 133, 6-((5-(5-chloro-2-methylpyridin-4-yl)-7-(2-(ethyl(methyl)amino)ethyl)-1-oxo-3,4-dihydroisoquinolin-2(1H)-yl)methyl)-4-ethoxynicotinonitrile] | 10 to 1000 nM
10 | 10 to 1000 nM | < 10 nM | CCOc1cc([C@H](C)N2CCc3c(Cl)cc(Cn4ccnc4NC)cc3C2=O)ncc1C#N (single isomer, unassigned) [Example 3] | 10 to 1000 nM
